Assay results: patent US4857641A, “C.12 modified erythromycin A derivatives” (Pfizer Inc., priority 1987, dated 1989)
≈ marks a conversion by molar mass, not a printed value. Like-named read-outs stand apart in the source and are kept apart here.

Key:
Test in all cases: in vitro antibacterial activity (MIC), BHI agar dilution
Assay type in all cases: cell-based
[1] = test system: Staph. epid.; settings: Staph. epid. 111, 18 hours at 37° C
Protocol: (§1) The compounds of the formula (3) are tested for in vitro antibacterial activity by standard methods in which the minimum inhibitory concentrations (MIC's) in mcg/ml against one or more microorganisms is measured. One such procedure is the one recommended by the International Collaborative Study on Antibiotic Sensitivity Testing (Ericcson and Sherris, Acta. Pathologica et Microbiologia Scandinav, Supp. 217, Section B: 64-68 [1971]), and employs brain heart infusion (BHI) agar and an inocula replicating device. Overnight growth tubes are diluted 100 fold for use as the standard inoculum (20,000-10,000 cells in approximately 0.002 ml. are placed on the agar surface; 20 ml. of BHI agar/dish). Twelve 2 fold dilutions of the test compound are employed, with initial concentration of the test drug being 200 mcg/ml. Single colonies are disregarded when reading plates after 18 hours at 37° C. The susceptibility (MIC) of the test organism is accepted as the lowest concentration of compound capable of producing complete inhibition of growth as judged by the naked eye.

[2] = test system: Strep. pyog.
Protocol: as §1

[3] = test system: Neis. sic.; settings: Neis. sic. 000, 18 hours at 37° C
Protocol: as §1

[4] = test system: E. coli; settings: E. coli 470, 18 hours at 37° C
Protocol: as §1

[5] = test system: Strep. faec.; settings: Strep. faec. 006, 18 hours at 37° C
Protocol: as §1

[6] = test system: Strep. pneum.; settings: Strep. pneum. 012, 18 hours at 37° C
Protocol: as §1

[7] = test system: Pat. mult.
Protocol: as §1

[8] = test system: Hem. infl.
Protocol: as §1

[9] = test system: Staph. aureus
Protocol: as §1

[10] = Staph. aureus 052, 18 hours at 37° C
[11] = Staph. aureus 110, 18 hours at 37° C
[12] = 18 h, Strep. pyog. 054, 18 hours at 37° C, read-out: MIC
[13] = 18 h, Strep. pyog. 203, 18 hours at 37° C, read-out: MIC
[14] = Escherichia coli, read-out: MIC
[15] = 18 h, Hem. infl. 038, 18 hours at 37° C, read-out: MIC
[16] = 18 h, Hem. infl. 042, 18 hours at 37° C, read-out: MIC
[17] = 18 h, Hem. infl. 073, 18 hours at 37° C, read-out: MIC
[18] = 18 h, Hem. infl. 078, 18 hours at 37° C, read-out: MIC
[19] = 18 h, Hem. infl. 081, 18 hours at 37° C, read-out: MIC
[20] = Staphylococcus aureus, Staph. aureus 005, 18 hours at 37° C, read-out: MIC

Row | Compound | MIC [9, 10] [µg/mL] | MIC [9, 11] [µg/mL] | MIC ([1]; read-out: MIC) [µg/mL] | MIC [2, 12] [µg/mL] | MIC [2, 13] [µg/mL] | MIC ([3]; read-out: MIC) [µg/mL] | MIC [4, 14] [µg/mL] | MIC ([5]; read-out: MIC) [µg/mL] | MIC [8, 15] [µg/mL] | MIC [8, 16] [µg/mL] | MIC [8, 17] [µg/mL] | MIC [8, 18] [µg/mL] | MIC [8, 19] [µg/mL] | MIC [9, 20] [µg/mL] | further results
1 | 4"-0-Acetyl-12,12'-anhydro-9-deoxo-11-deoxy-9R,11-(thiocarbonyldioxy)erythromycin A [Compound 3a] | 50 | 50 | – | – | – | – | – | – | – | – | – | – | – | – | MIC [1]: 12.5 µg/mL; MIC ([2]; Strep. pyog. 054, 18 hours at 37° C): 50 µg/mL; MIC ([2]; Strep. pyog. 203, 18 hours at 37° C): 3.12 µg/mL; MIC [3]: 50 µg/mL; MIC [4]: 6.25 µg/mL; MIC [5]: 50 µg/mL; MIC [6]: 3.12 µg/mL; MIC ([7]; Pat. mult. 001, BHI agar, 18 hours at 37° C): 25 µg/mL; MIC ([8]; Hem. infl. 012, 18 hours at 37° C): > 50 µg/mL; MIC ([8]; Hem. infl. 038, 18 hours at 37° C): > 50 µg/mL; MIC ([8]; Hem. infl. 042, 18 hours at 37° C): 50 µg/mL; MIC ([8]; Hem. infl. 073, 18 hours at 37° C): 50 µg/mL; MIC ([8]; Hem. infl. 078, 18 hours at 37° C): 50 µg/mL; MIC ([8]; Hem. infl. 081, 18 hours at 37° C): 50 µg/mL; MIC ([9]; Staph. aureus 005, 18 hours at 37° C): 50 µg/mL
2 | C=C1C(CC)OC(=O)C(C)C(OC2CC(C)(OC)C(OC(C)=O)C(C)O2)C(C)C(OC2OC(C)CC(N(C)C)C2O)C(C)(O)CC(C)C(O)C(C)C1O (stereo not drawn) [Compound 3b, 4"-O-Acetyl-12,12'anhydro-9-deoxo-9R-hydroxyerythromycin A] | > 50 | > 50 | > 50 | > 50 | 3.12 (≈ 4.11 µM) | 50 (≈ 65.8 µM) | 25 (≈ 32.9 µM) | > 50 | 50 (≈ 65.8 µM) | > 50 | > 50 | > 50 | > 50 | > 50 | MIC ([7]; 18 h): 25 µg/mL (≈ 32.9 µM)
3 | CCC1OC(=O)C(C)C(OC2CC(C)(OC)C(OC(C)=O)C(C)O2)C(C)C(OC2OC(C)CC(N(C)C)C2O)C(C)(O)CC(C)C(O)C(C)C(O)C1(O)CO (stereo not drawn) [Compound 3d, 4"-O-Acetyl-9-deoxo-9R-12'-dihydroxyerythromycin A] | > 50 | > 50 | > 50 | > 50 | 3.12 (≈ 3.93 µM) | > 50 | 12.5 (≈ 15.7 µM) | 25 (≈ 31.5 µM) | > 50 | 50 (≈ 63 µM) | 50 (≈ 63 µM) | > 50 | > 50 | > 50 | MIC ([7]; Pat. mult. 001, BHI agar, 18 hours at 37° C, read-out: MIC): 50 µg/mL (≈ 63 µM)
